For 16 molecules, IC50 results are on record in US20160176867A1, “MODIFIED BET-PROTEIN-INHIBITING DIHYDROQUINOXALINONES AND DIHYDROPYRIDOPYRAZINONES” (BAYER PHARMA AKTIENGESELLSCHAFT, priority 2013, published 2016).

Structures are written as SMILES.

One assay has as its system MOLP-8 cells. Nature of the assay: Cell proliferation assay (alamarBlue), MOLP-8. In kind it is cell-based. Conditions: Homo sapiens; MOLP-8 (multiple myeloma), 120 hours. As to the method:
(§1) In accordance with the invention, the ability of the substances to inhibit cell proliferation was determined. Cell viability was determined by means of the alamarBlue® reagent (Invitrogen) in a Victor X3 Multilabel Reader (Perkin Elmer). The excitation wavelength was 530 nm and the emission wavelength […].
The MOLP-8 cells (DSMZ, ACC 569) were sown at a concentration of 4000 cells/well in 100 μl of growth medium (RPMI1640, 20% FCS) on 96-well microtitre plates.
(§2) After overnight incubation at 37° C., the fluorescence values were determined (CI values). Then the plates were treated with various substance dilutions (1E-5 M, 3E-6 M, 1E-6 M, 3E-7 M, 1E-7 M, 3E-8 M, 1E-8 M) and incubated at 37° C. over 96 hours (MOLM-13, B16F10, CHL-1 cells) or 120 hours (MOLP-8 cells). Subsequently, the fluorescence values were determined (CO values). For the data analysis, the CI values were subtracted from the CO values and the results were compared between cells which had been treated with various dilutions of the substance or only with buffer solution. The IC50 values (substance concentration needed for 50% inhibition of cell proliferation) were calculated therefrom.
Background: Resazurin is reduced to fluorescent resorufin, in cell work by metabolically active cells.

For assay [1], the target named is T1, BRD4 bromo domain 1 [BRD4(1)] (Homo sapiens, UniProt O60885).
T1 construct: N-terminally His6-tagged BRD4(1) (amino acids 67-152); made in house; host or cells: E. coli
Nature of the assay: BRD4/acetylated peptide H4 binding assay (TR-FRET), BRD4 bromo domain 1. Conditions: inhibition of BRD4(1)/Ac-H4 peptide interaction. An outline of the steps:
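TR-FRET (665/620 nm ratio) measuring displacement of biotinylated tetra-acetylated H4 peptide from His6-BRD4(1) (aa 67-152, E. coli; typically 10 nM) at pH 7.5. Compound (11 concentrations, 0.1 nM–20 μM, duplicates) was preincubated 10 min at 22°C, then 1 h at 22°C and ≥3 h at 4°C; IC50 from 4-parameter fit normalized to DMSO and no-BRD4 controls.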
(In TR-FRET formats the signal depends on donor and acceptor labels being close together.)

The next assay has as its system CHL-1 cells. Nature of the assay: Cell proliferation assay (alamarBlue), CHL-1. The assay is classed as cell-based. To be noted: Homo sapiens; CHL-1 (melanoma, BRAF wild-type), 96 hours. The protocol: as §1
The CHL-1 cells (ATCC, CRL-9446) were sown at a concentration of 1000 cells/well in 100 μl of growth medium (DMEM with glutamine, 10% FCS) on 96-well microtitre plates.
as §2

Usually IC50 stands for the concentration needed to halve the response being measured.

For the molecule `COCCN1c2nc(Nc3cccc(S(=O)(=O)N4CCOCC4)c3)ccc2N(C)C(=O)C1C` (racemic) [Example 49, 4-(2-methoxyethyl)-1,3-dimethyl-6-{[3-(morpholin-4-ylsulphonyl)phenyl]amino}-3,4-dihydropyrido[2,3-b]pyrazin-2(1H)-one], the IC50 in the assay on MOLP-8 cells came to 163 nM; in assay [1], 112 nM; in the assay with CHL-1 cells, 153 nM.

On to `COCCN1c2nc(Nc3cccc(S(=O)(=O)N4CCN(C)CC4)c3)ccc2N(C)C(=O)C1C` (racemic) [Example 53, 4-(2-methoxyethyl)-1,3-dimethyl-6-({3-[(4-methylpiperazin-1-yl)sulphonyl]phenyl}-amino)-3,4-dihydropyrido-[2,3-b]pyrazin-2(1H)-one], for which the results for the concentration for half-maximal inhibition (IC50) (in the assay on MOLP-8 cells; in assay [1]; in the assay with CHL-1 cells) were 365 nM, 151 nM and 179 nM, respectively.

For the molecule `COCCN1c2nc(Nc3cccc(S(=O)(=O)N4CCOCC4)c3)ccc2N(C)C(=O)[C@H]1C` (stereo in doubt) [Example 111, (3R)-4-(2-methoxyethyl)-1,3-dimethyl-6-{[3-(morpholin-4-ylsulphonyl)phenyl]amino}-3,4-dihydropyrido[2,3-b]pyrazin-2(1H)-one], the half-maximal inhibitory concentration (IC50) stood at 106 nM in the assay on MOLP-8 cells, 75 nM in assay [1] and 85 nM in the assay on CHL-1 cells.

Regarding `COc1ccc(C(=O)NC2CCN(C)CC2)cc1Nc1ccc2c(n1)N(C1CCOCC1)[C@H](C)C(=O)N2C` [Example 16, 3-{[(3R)-1,3-Dimethyl-2-oxo-4-(tetrahydro-2H-pyran-4-yl)-1,2,3,4-tetrahydropyrido[2,3-b]pyrazin-6-yl]amino}-4-methoxy-N-(1-methylpiperidin-4-yl)benzamide], the concentration for half-maximal inhibition (IC50) with MOLP-8 cells amounted to 306 nM; in assay [1], 234 nM; in the assay with CHL-1 cells it was 346 nM.

As for `CCNS(=O)(=O)c1cccc(Nc2ccc3c(n2)N(C2CCOCC2)[C@H](C)C(=O)N3C)c1` [Example 23, 3-{[(3R)-1,3-dimethyl-2-oxo-4-(tetrahydro-2H-pyran-4-yl)-1,2,3,4-tetrahydropyrido[2,3-b]pyrazin-6-yl]amino}-N-ethylbenzenesulphonamide], the 50% inhibitory concentration (IC50) in the assay on MOLP-8 cells is 37 nM; in assay [1], 15 nM; with CHL-1 cells, 50 nM.

On to `C[C@@H]1C(=O)N(C)c2ccc(Nc3cccc(S(=O)(=O)N4CCCC4)c3)nc2N1C1CCN(C)CC1` [Example 24, (3R)-1,3-Dimethyl-4-(1-methylpiperidin-4-yl)-6-{[3-(pyrrolidin-1-ylsulphonyl)phenyl]amino}-3,4-dihydropyrido[2,3-b]pyrazin-2(1H)-one], for which the IC50 in the assay with MOLP-8 cells was found to be 11 nM; in assay [1], 16 nM; with CHL-1 cells, 13 nM.

With `COc1ccc(S(=O)(=O)N2CCOCC2)cc1Nc1ccc2c(n1)N(C1CCN(C)CC1)[C@H](C)C(=O)N2C` [Example 25, (3R)-6-{[2-Methoxy-5-(morpholin-4-ylsulphonyl)phenyl]amino}-1,3-dimethyl-4-(1-methylpiperidin-4-yl)-3,4-dihydropyrido[2,3-b]pyrazin-2(1H)-one], the 50% inhibitory concentration (IC50) was determined as 11 nM in the assay on MOLP-8 cells, 16 nM in assay [1] and 16 nM with CHL-1 cells.

Regarding `C[C@@H]1C(=O)N(C)c2ccc(Nc3cccc(S(=O)(=O)NC4CC4)c3)nc2N1C1CCOCC1` [Example 26, N-Cyclopropyl-3-{[(3R)-1,3-dimethyl-2-oxo-4-(tetrahydro-2H-pyran-4-yl)-1,2,3,4-tetrahydropyrido[2,3-b]pyrazin-6-yl]amino}benzenesulphonamide], the 50% inhibitory concentration (IC50) in the assay with MOLP-8 cells worked out at 24 nM; in assay [1] it was 17 nM; with CHL-1 cells, 31 nM.

In the case of `C[C@@H]1C(=O)N(C)c2ccc(Nc3cccc(S(=O)(=O)N4CCCC4)c3)nc2N1C1CCOCC1` [Example 27, (3R)-1,3-Dimethyl-6-{[3-(pyrrolidin-1-ylsulphonyl)phenyl]amino}-4-(tetrahydro-2H-pyran-4-yl)-3,4-dihydropyrido[2,3-b]pyrazin-2(1H)-one], the IC50 in the assay with MOLP-8 cells was found to be 30 nM; in assay [1], 17 nM; in the assay on CHL-1 cells it was 23 nM.

Regarding `COc1ccc(S(=O)(=O)N2CCOCC2)cc1Nc1ccc2c(n1)N(C1CCOCC1)[C@H](C)C(=O)N2C` [Example 28, (3R)-6-{[2-Methoxy-5-(morpholin-4-ylsulphonyl)phenyl]amino}-1,3-dimethyl-4-(tetrahydro-2H-pyran-4-yl)-3,4-dihydropyrido[2,3-b]pyrazin-2(1H)-one], the values for the IC50 (with MOLP-8 cells; in assay [1]; in the assay on CHL-1 cells) were 18 nM, 26 nM and 14 nM, respectively.

For `C[C@@H]1C(=O)N(C)c2ccc(Nc3cccc(S(=O)(=O)N4CC(F)(F)C4)c3)nc2N1C1CCN(C)CC1` [Example 29, (3R)-6-({3-[(3,3-Difluoroazetidin-1-yl)sulphonyl]phenyl}amino)-1,3-dimethyl-4-(1-methylpiperidin-4-yl)-3,4-dihydropyrido[2,3-b]pyrazin-2(1H)-one], the results for the IC50 (in the assay on MOLP-8 cells; in assay [1]; in the assay on CHL-1 cells) were 41 nM, 29 nM and 36 nM, respectively.

On to `COc1ccc(S(=O)(=O)N2CC3(COC3)C2)cc1Nc1ccc2c(n1)N(C1CCOCC1)[C@H](C)C(=O)N2C` [Example 30, (3R)-6-{[2-Methoxy-5-(2-oxa-6-azaspiro[3.3]hept-6-ylsulphonyl)phenyl]amino}-1,3-dimethyl-4-(tetrahydro-2H-pyran-4-yl)-3,4-dihydropyrido[2,3-b]pyrazin-2(1H)-one], for which the IC50 was 96 nM in the assay with MOLP-8 cells, 44 nM in assay [1] and 80 nM with CHL-1 cells.

Consider `CC(C)N1c2nc(Nc3cccc(C(=O)N4CCN(C)CC4)c3)ccc2N(C)C(=O)[C@H]1C` [Example 77, (3R)-4-isopropl-1,3-dimethyl-6-({3-[(4-methylpiperazin-1-yl)carbonyl]phenyl}-amino)-3,4-dihydro-pyrido[2,3-b]pyrazin-2(1H)-one], for which the IC50 with MOLP-8 cells was 494 nM; in assay [1], 144 nM.

Consider `CC(C)N1c2nc(Nc3cccc(C(=O)N[C@H]4CC[C@H](N5CCN(CC6CC6)CC5)CC4)c3)ccc2N(C)C(=O)[C@H]1C` [Example 79, N-{trans-4-[4-(cyclo-propylmethyl)piperazin-1-yl]cyclohexyl}-3-{[(3R)-4-isopropyl-1,3-dimethyl-2-oxo-1,2,3,4-tetrahydropyrido[2,3-b]pyrazin-6-yl]amino}benzamide], for which the IC50 was determined as 77 nM in the assay on MOLP-8 cells and 193 nM in assay [1].

On to `CC(C)N1c2nc(Nc3cccc(C(=O)N4CCN(CC5CC5)CC4)c3)ccc2N(C)C(=O)[C@H]1C` [Example 88, (3R)-6-[(3-{[4-(cyclo-propylmethyl)piperazin-1-yl]carbonyl}phenyl)amino]-4-isopropyl-1,3-dimethyl-3,4-dihydropyrido[2,3-b]pyrazin-2(1H)-one], for which the results for the IC50 (with MOLP-8 cells; in assay [1]) were 876 nM and 382 nM, respectively.

Regarding `Cc1nnc(-c2cccc(Nc3ccc4c(n3)N(C3CCOCC3)[C@H](C)C(=O)N4C)c2)o1` [Example 134, (3R)-1,3-Dimethyl-6-{[3-(5-methyl-1,3,4-oxadiazol-2-yl)phenyl]amino}-4-(tetrahydro-2H-pyran-4-yl)-3,4-dihydropyrido[2,3-b]pyrazin-2(1H)-one], the IC50 in the assay on MOLP-8 cells was determined as 453 nM; in assay [1], 179 nM.
